Earlier results in patent publication US20220323409A1, “MODIFIED RELEASE FORMULATIONS AND USES THEREOF” (SUNOVION PHARMACEUTICALS INC., priority 2019, published 2022).

What was measured:
[1] = 400-800 mg/day dosage range, product label
[2] = Taubel et al. 2017

For `CCN1CCCC1CNC(=O)c1cc(S(=O)(=O)CC)c(N)cc1OC` (racemic) [Racemic (50:50), 4-amino-N-[(1-ethylpyrrolidin-2-yl)methyl]-5-ethylsulfonyl-2-methoxy-benzamide], which “frequency of movement related adverse events (tremor, rigidity, hypokinesia, hypersalivation, akathisia, dyskinesia)” value [1] is on record?
Its value is “very common”.

And the “QT interval prolongation versus plasma concentration” value [2]?
The value was “substantially linear increase of prolongation with plasma concentration”.
